Measured values from patent publication US8933070B2, “Methods of targeting PTEN mutant diseases and compositions therefor” (University Health Network, priority 2010, dated 2015).
Each block holds one compound with its values, some of them ahead of it.

Experiments:
[1] = target: T1, PLK1 (Homo sapiens, UniProt P53350); test: PLK1 inhibition assay (Z-Lyte); assay type: biochemical; settings: dose of 10 μM; read-out: PLK1 relative inhibition percentage
T1 construct: purchased Invitrogen PV3501

[2] = target: T2, PLK2 (Homo sapiens, UniProt Q9NYY3); test: PLK2 inhibition assay (Z-Lyte); assay type: biochemical; settings: for inhibition at 10 µM: dose of 10 μM, read-out: PLK2 relative inhibition percentage
T2 construct: purchased Invitrogen PV4204
Procedure: (§1) PLK2 inhibition was determined using the Z-Lyte assay kit from Invitrogen (cat# PV3802). The assay was performed using the recommended manufacturer's instructions with 60 μM ATP and 133 nM PLK2 (Invitrogen cat #PV4204). The % inhibition values were determined according to the manufacturer's directions and IC50 values were obtained using a non-linear 4 point logistic curve fit (XLfit4, IDBS)

[3] = test system: A549 lung cancer cell line; test: Cell growth inhibition, Sulforhodamine B (SRB) assay; assay type: cell-based; settings: Homo sapiens, A549, 120 h; 5 days, SRB; read-out: Cell Line GI50 Range A549
Procedure: (§2) Aliquots (20 μl) from each concentration were overlaid to 80 μl of the pre-seeded cells in the 96-plates to make final concentrations of 10 nM to 50 μM. The cells were cultured for 5 days before the Sulforhodamine B (SRB) assay was performed to determine the compound's cell growth inhibition activity.
(§3) Sulforhodamine B (Sigma, Canada) is a water-soluble dye that binds to the basic amino acids of cellular proteins. Thus, colorimetric measurement of the bound dye provides an estimate of the total protein mass that is related to the cell number. The cells are fixed in situ by gently aspirating off the culture media and adding 50 μl ice cold 10% Trichloroacetic Acid (TCA) per well and incubated at 4° C. for 30-60 min. The plates are washed with water five times and allowed to air dry for 5 min. Addition of 50 μl 0.4% (w/v) SRB solution in 1% (v/v) acetic acid to each well and incubatation for […] at RT completes the staining reaction. Following staining, plates are washed four times with 1% acetic acid to remove unbound dye and then allowed to air dry for 5 min. […] Absorbance is read at 570 nm.
(§4) The percentage (%) of relative growth inhibition was calculated by comparing to DMSO-treated only cells (100%). GI50's were determined for compounds with cytotoxic activity. The GI50 was calculated using GraphPad PRISM software (GraphPad Software, Inc., USA).

[4] = test system: MCF-7 luminal breast cancer cell line; test: as above; assay type: cell-based; settings: Homo sapiens, MCF7, 120 h; 5 days, SRB; read-out: Cell Line GI50 Range MCF-7
Procedure: as §2, §3, §4

[5] = test system: SW620 colon cancer cell line; test: as above; assay type: cell-based; settings: Homo sapiens, SW-620, 120 h; 5 days, SRB; read-out: Cell Line GI50 Range SW620
Procedure: as §2, §3, §4

[6] = test system: human mammary epithelial primary cells (HMEC); test: as above; assay type: cell-based; settings: 120 h, 5 days, SRB, normal primary breast cells, read-out: Cell Line GI50 Range HMEC
Procedure: as §2, §3, §4

[7] = test system: MDA-MB-468 basal breast cancer cell line; test: as above; assay type: cell-based; settings: Homo sapiens, MDA-MB-468, 120 h; 5 days, SRB; read-out: Cell Line GI50 Range MDA-MB-468
[8] = test system: HCC1954 basal breast cancer cell line; test: as above; assay type: cell-based; settings: Homo sapiens, HCC1954, 120 h; 5 days, SRB; Table 5; read-out: Cell Line GI50 Range HCC1954
Procedure: as §2, §3, §4
The SRB assay described above was used to assay test compounds against the extended panel (Table 6).

[9] = target: T3, human PLK4 (Homo sapiens, UniProt O00444); test: PLK4 inhibition assay (indirect ELISA); assay type: biochemical; settings: read-out: IC50 Ranges PLK4
T3 construct: amino terminal GST fusion of residues 1-391 of human PLK4; made in house; host or cells: E. coli
T3 sequence (O00444 1-391): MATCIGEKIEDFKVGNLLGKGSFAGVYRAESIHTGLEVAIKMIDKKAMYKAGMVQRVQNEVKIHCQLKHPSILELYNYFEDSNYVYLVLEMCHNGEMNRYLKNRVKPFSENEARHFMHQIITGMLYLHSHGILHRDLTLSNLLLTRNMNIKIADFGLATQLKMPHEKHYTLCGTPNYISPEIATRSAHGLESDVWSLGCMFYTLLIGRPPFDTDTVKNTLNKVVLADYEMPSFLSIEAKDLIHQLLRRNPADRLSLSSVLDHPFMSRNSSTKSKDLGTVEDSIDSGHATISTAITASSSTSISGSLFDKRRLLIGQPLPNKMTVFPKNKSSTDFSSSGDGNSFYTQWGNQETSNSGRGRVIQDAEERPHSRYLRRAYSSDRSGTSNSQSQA
Procedure: The protein was purified from clarified cell extracts after induction at 15° C. overnight using glutathione sepharose, gel permeation chromatography, and ion exchange (Resource Q). The resulting protein was dephosphorylated with lambda phosphatase (NEB cat# P0753), and resolved from the phosphatase using gluthione sepharose. The dephosphorylated GST-PLK4 was stored in aliquots at −80° C. until use.
PLK4 activity was measured using an indirect ELISA detection system. […] The colourimetric reaction was allowed to continue for 5 minutes, followed by addition of stop solution (0.5 N sulphuric acid), and quantified by detection at 450 nm with either a monochromatic or filter based plate reader (Molecular Devices M5 or Beckman DTX880, respectively).
Compounds were pre-incubated in the presence of enzyme for 15 minutes prior to addition of ATP and the activity remaining quantified using the above described activity assay. […] The IC50 value was determined using a non-linear 4 point logistic curve fit (XLfit4, IDBS) with the formula; (A+(B/(1+((x/C)^D)))), where A=background value, B=range, C=inflection point, D=curve fit parameter.

[10] = test system: AMPKalpha; test: Kinase selectivity assay (CEREP, HTRF); assay type: biochemical, human
Procedure: The inhibitory activity of selected compounds was evaluated against a panel of 45 different kinase enzymes by CEREP, France. The assays were performed using standard HTRF assay methods as documented by CEREP against the human orthologues of Abl kinase, Akt1/PKBa, AMPKa, BMX kinase (Etk), Brk, CaMK2a, CaMK4, CDC2/CDK1 (cycB), CHK1, CHK2, c-Met kinase, CSK, EphB4 kinase, ERK1, ERK2 (P42mapk), FGFR2 kinase, FGFR4 kinase, FLT-1 kinase (VEGFR1), FLT-3 kinase, Fyn kinase, IGF1R kinase, IRK (InsR), JNK 2, KDR kinase (VEGFR2), Lck kinase, Lyn kinase, MAPKAPK2, MEK1/MAP2K1, p38a kinase, p38d kinase, p38g kinase, PDGFRb kinase, PDK1, PKA, PKCa, PKCb1, PKCb2, PKCg, Ret kinase, ROCK2, RSK2, Src kinase, Syk, and TRKA. The % Inhibition was determined by the formula; % Inhibition=100×(1−(experimental value−background value)/(high activity control−background value)).

[11] = target: FGFR1; test: Millipore kinase assay (radiolabelled phosphopeptide filter binding), IC50 estimate; assay type: biochemical; settings: estimated from inhibition at three compound concentrations; ATP at Km; read-out: IC50 value estimates against FGFR1
Procedure: For a number of compounds, IC50 values were estimated against kinases of interest based on Millipore protocols. Kinase assays at Millipore were performed using a radiolabelled phosphopeptide filter binding detection system, in duplicate, at each compound concentration. The ATP substrate concentration in the reactions was at the Km for each enzyme.
To allow for a more direct comparison of compound inhibition, an IC50 value was estimated from the inhibition determined at three compound concentrations. Several assumptions were made to allow this calculation using a 4 parameter non linear curve fit model, including full inhibition set at 100%, no inhibition set to 0%, and a curve fit parameter set at 1. The inflection point was reported as the estimated […].

[12] = target: T4, Aurora B (Homo sapiens, UniProt Q96GD4); test: Aurora B inhibition assay (Z-Lyte); assay type: biochemical; settings: read-out: IC50 Ranges Aurura B
T4 construct: purchased Invitrogen PV3970
Procedure: Aurora B inhibition was determined using the Z-Lyte assay kit from Invitrogen. […] The % inhibition values were determined according to the manufacturer's directions and IC50 values were obtained using a non-linear 4 point logistic curve fit (XLfit4, IDBS).

[13] = target: T5, Aurora A (Homo sapiens, UniProt O14965); test: Aurora A inhibition assay (Z-Lyte); assay type: biochemical; settings: for inhibition at 10 µM: dose of 10 μM, read-out: Aurora A relative inhibition percentage
T5 construct: purchased Invitrogen PV3612
T5 sequence (O14965 1-403): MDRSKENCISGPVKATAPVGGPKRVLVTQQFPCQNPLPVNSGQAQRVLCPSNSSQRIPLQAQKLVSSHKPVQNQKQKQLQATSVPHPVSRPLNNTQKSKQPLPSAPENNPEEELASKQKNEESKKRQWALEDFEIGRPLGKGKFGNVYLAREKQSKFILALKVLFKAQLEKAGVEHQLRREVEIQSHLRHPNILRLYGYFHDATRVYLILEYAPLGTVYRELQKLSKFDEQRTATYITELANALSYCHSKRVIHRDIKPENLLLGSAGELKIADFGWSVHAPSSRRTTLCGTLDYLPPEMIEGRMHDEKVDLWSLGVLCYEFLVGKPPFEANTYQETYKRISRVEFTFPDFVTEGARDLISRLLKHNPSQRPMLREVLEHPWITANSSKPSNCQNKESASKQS
Procedure: as §1, with “Aurora A” for “PLK2”, “Invitrogen.” for “Invitrogen (cat# PV3802).”, “20 nM” for “60 μM”, “12” for “133”, “#PV3612).” for “#PV4204).”

T4 sequence (Q96GD4 whole entry): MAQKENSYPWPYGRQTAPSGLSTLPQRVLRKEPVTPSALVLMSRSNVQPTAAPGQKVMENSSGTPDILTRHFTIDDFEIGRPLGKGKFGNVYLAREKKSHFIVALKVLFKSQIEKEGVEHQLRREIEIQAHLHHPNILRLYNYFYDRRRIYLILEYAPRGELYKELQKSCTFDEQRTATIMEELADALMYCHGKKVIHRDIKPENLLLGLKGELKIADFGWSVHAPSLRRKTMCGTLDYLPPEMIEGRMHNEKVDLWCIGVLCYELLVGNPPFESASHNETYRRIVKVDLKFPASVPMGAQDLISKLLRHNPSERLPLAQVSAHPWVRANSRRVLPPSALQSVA
T2 sequence (Q9NYY3 whole entry): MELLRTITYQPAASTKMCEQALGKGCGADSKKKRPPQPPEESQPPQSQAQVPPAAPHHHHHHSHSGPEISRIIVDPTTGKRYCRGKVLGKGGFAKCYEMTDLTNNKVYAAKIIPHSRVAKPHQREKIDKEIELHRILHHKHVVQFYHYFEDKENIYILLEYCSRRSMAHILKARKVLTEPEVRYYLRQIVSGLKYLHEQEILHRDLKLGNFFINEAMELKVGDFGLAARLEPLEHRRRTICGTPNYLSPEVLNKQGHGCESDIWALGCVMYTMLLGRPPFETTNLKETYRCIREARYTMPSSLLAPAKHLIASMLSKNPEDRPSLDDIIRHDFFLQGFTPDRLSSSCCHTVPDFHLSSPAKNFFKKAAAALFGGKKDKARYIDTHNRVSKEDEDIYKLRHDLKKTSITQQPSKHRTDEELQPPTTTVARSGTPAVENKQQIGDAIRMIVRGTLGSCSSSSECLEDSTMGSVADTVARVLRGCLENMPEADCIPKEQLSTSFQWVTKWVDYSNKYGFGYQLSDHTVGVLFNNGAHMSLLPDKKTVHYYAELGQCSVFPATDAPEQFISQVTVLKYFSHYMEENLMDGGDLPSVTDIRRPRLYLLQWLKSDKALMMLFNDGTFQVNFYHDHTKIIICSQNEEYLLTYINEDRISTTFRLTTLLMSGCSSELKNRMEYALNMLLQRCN
T1 sequence (P53350 whole entry): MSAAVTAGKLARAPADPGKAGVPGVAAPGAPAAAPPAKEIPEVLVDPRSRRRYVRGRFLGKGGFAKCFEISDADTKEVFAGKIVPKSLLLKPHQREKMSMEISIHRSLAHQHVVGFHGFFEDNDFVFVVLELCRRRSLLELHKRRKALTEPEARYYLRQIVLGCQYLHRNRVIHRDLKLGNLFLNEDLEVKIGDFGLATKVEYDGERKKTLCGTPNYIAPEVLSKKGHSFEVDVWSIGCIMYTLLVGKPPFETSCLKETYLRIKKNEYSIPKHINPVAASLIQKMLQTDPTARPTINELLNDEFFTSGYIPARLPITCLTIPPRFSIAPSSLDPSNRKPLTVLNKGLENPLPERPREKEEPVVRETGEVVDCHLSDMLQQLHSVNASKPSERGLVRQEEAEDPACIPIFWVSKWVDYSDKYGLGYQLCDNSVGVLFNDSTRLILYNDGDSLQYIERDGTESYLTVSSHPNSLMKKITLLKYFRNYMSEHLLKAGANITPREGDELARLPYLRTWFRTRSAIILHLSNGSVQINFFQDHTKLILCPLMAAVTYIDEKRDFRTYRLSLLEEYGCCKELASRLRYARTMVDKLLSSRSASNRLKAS

Structure (SMILES): CN(C)Cc1ccc(/C=C/c2n[nH]c3cc([C@@H]4C[C@@]45C(=O)Nc4ccccc45)ccc23)cc1 (racemic) [Compound 5]
inhibition at 10 µM [1]: < 50%
inhibition at 10 µM [2]: < 50%

Structure (SMILES): O=C1Nc2ccccc2[C@@]12C[C@@H]2c1ccc2c(/C=C/c3ccncc3)n[nH]c2c1 (racemic) [Compound 6]
inhibition at 10 µM [2]: < 50%
GI50 [3]: < 5 µM
GI50 [4]: < 5 µM
GI50 [5]: < 5 µM
GI50 [6]: 5 to 20 µM
GI50 [7]: < 5 µM
GI50 [8]: < 5 µM

Structure (SMILES): COc1ccc2c(c1)/C(=C\c1ccc3c(/C=C/c4ccc(CN(C)C)cc4)n[nH]c3c1)C(=O)N2 [Compound 1]
IC50 [9]: < 5 µM

Structure (SMILES): O=C1Nc2ccccc2/C1=C\c1ccc2cn[nH]c2c1 [Compound 26]
% Inhibition at 10 μM Concentration [10]: 54%

Structure (SMILES): O=C1Nc2ccccc2/C1=C\c1ccc2c(/C=C/c3ccncc3)n[nH]c2c1 [Compound 28]
IC50 [11]: < 5 µM

Structure (SMILES): COc1ccc2c(c1)[C@]1(C[C@H]1c1ccc3c(/C=C/c4ccc(CN5C[C@@H](C)O[C@@H](C)C5)cc4)n[nH]c3c1)C(=O)N2 [Compound 37]
inhibition at 10 µM [13]: > 50%

Structure (SMILES): C[C@@H]1CN(Cc2ccc(/C=C/c3n[nH]c4cc([C@@H]5C[C@@]56C(=O)Nc5ccccc56)ccc34)cc2)C[C@H](C)O1 [Compound 38]
inhibition at 10 µM [13]: > 50%

Structure (SMILES): CN(C)Cc1ccc(/C=C/c2n[nH]c3cc(C=C4C(=O)Nc5ccccc54)ccc23)cc1 [Compound 39]
inhibition at 10 µM [1]: < 50%
inhibition at 10 µM [13]: > 50%
IC50 [11]: < 5 µM

Continued, values first:

IC50 ([2]; read-out: IC50 Ranges PLK2): > 50 µM
Structure (SMILES): O=C1Nc2ccccc2[C@@]12C[C@@H]2c1ccc2cn[nH]c2c1 (racemic) [Compound 40]

% Inhibition at 10 μM Concentration [10]: 81%
IC50 [11]: < 5 µM
Structure (SMILES): O=C1Nc2ccccc2C1=Cc1ccc2c(/C=C/c3ccccn3)n[nH]c2c1 [Compound 9]

IC50 [9]: < 5 µM
IC50 [12]: < 5 µM
Structure (SMILES): Cc1ncsc1/C=C/c1n[nH]c2cc(/C=C3/C(=O)Nc4ccccc43)ccc12 [Compound 10]

IC50 [9]: < 5 µM
IC50 ([13]; read-out: IC50 Ranges Aurora A): < 5 µM
IC50 [12]: < 5 µM
Structure (SMILES): COc1ccc2c(c1)/C(=C\c1ccc3c(-c4ccc(N(C)C)nc4)n[nH]c3c1)C(=O)N2 [Compound 11]

IC50 [9]: < 5 µM
Structure (SMILES): COc1ccc2c(c1)C1(CC1c1ccc3c(I)n[nH]c3c1)C(=O)N2 (centres unmarked) [Compound 12]

% Inhibition at 10 μM Concentration [10]: 15%
Structure (SMILES): O=C1Nc2ccccc2/C1=C\c1ccc2[nH]nnc2c1 [Compound 24]

% Inhibition at 10 μM Concentration [10]: 8%
Structure (SMILES): O=C1Nc2ccccc2/C1=C\c1ccc2c(/C=C/c3ccccc3Cl)n[nH]c2c1 [Compound 29]

% Inhibition at 10 μM Concentration [10]: 76%
IC50 [11]: < 5 µM
Structure (SMILES): COc1ccc2c(c1)C(=Cc1ccc3c(-c4ccc(N5CCN(C)CC5)nc4)n[nH]c3c1)C(=O)N2 [Compound 31]

inhibition at 10 µM [13]: > 50%
IC50 [12]: < 5 µM
Structure (SMILES): COc1ccc2c(c1)[C@]1(C[C@H]1c1ccc3c(/C=C/c4ccc(CN5CCOCC5)cc4)n[nH]c3c1)C(=O)N2C [Compound 36]
